The values below come from ChEMBL document CHEMBL2384999, “Discovery of a potent, dual serotonin and norepinephrine reuptake inhibitor” (ACS Med Chem Lett, 2013).

Data set [1] in a line: Serum protein binding in human. The note with it: read-out: PB (converted). It counts as ADME, cell-free.
The subject of data set [2] is Rattus norvegicus. The experiment in a line: Neurotoxicity in Sprague-Dawley rat at 100 mg/kg, po by rotorod test. The note with it: in vivo. Set-up: dose 100 mg/kg, route oral. It counts as toxicity, organism-based.
A short description of data set [3]: Ratio of drug uptake in brain to plasma in Sprague-Dawley rat at 10 mg/kg, po. It counts as ADME, organism-based. Set-up: dose 10 mg/kg, route oral. To be noted: read-out: BPR.
In data set [4] the test system is Plasma. The experiment in a line: Drug uptake in Sprague-Dawley rat plasma at 10 mg/kg, po. It counts as ADME, organism-based. Set-up: dose 10 mg/kg, route oral. The note with it: in vivo.
Data set [5] relates to Brain. The experiment in a line: Drug uptake in Sprague-Dawley rat brain at 10 mg/kg, po. It counts as ADME, organism-based. Set-up: dose 10 mg/kg, route oral. The note with it: in vivo, read-out: Drug uptake.
Data set [6] deals with Cytochrome P450 2D6 (Homo sapiens, UniProt P10635). The data set is described as follows: Inhibition of CYP2D6 (unknown origin). It counts as ADME.
Data set [7] deals with Cytochrome P450 2C9 (Homo sapiens, UniProt P11712). The experiment in a line: Inhibition of CYP2C9 (unknown origin). It counts as ADME.
The target of data set [8] is Cytochrome P450 3A4 (Homo sapiens, UniProt P08684). The data set is described as follows: Inhibition of CYP3A4 (unknown origin). It counts as ADME.
Data set [9] has as its target T1, Cytochrome P450 1A2 (Homo sapiens, UniProt P05177).
T1 sequence (P05177 whole entry): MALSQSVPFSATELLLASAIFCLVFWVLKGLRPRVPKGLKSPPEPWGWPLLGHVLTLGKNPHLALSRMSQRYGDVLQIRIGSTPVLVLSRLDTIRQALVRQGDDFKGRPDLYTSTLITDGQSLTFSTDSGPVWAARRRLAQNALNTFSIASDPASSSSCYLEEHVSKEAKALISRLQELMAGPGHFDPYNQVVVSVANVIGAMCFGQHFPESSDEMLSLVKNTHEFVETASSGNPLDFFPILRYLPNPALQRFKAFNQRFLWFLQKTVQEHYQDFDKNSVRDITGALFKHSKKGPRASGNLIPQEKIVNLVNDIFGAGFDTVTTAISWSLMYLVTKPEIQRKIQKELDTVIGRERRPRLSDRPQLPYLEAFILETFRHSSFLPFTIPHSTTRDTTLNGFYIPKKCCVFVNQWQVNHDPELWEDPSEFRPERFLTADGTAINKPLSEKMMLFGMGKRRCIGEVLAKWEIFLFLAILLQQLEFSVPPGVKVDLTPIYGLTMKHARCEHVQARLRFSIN
The experiment in a line: Inhibition of CYP1A2 (unknown origin). It counts as ADME.

Data set [10] has as its target CYP2C9 (Homo sapiens, UniProt P11712). The experiment in a line: Inhibition of CYP2C9 (unknown origin) at 10 uM. It counts as ADME.
For data set [11], the target named is CYP3A4 (Homo sapiens, UniProt P08684). The experiment in a line: Inhibition of CYP3A4 (unknown origin) at 10 uM. It counts as ADME.
Data set [12] concerns the target CYP2D6 (Homo sapiens, UniProt P10635). The experiment in a line: Inhibition of CYP2D6 (unknown origin) at 10 uM. It counts as ADME.
Data set [13] can be described thus: Oral bioavailability in dog at 1 mg/kg. It counts as ADME, organism-based, Canis lupus familiaris. The note with it: in vivo.
Data set [14] is described as follows: Oral bioavailability in rat at 1 mg/kg. The note with it: in vivo. It counts as ADME, organism-based.
Data set [15] in a line: Volume of distribution at steady state in dog at 1 mg/kg, iv. It counts as ADME, organism-based, Canis lupus familiaris. To be noted: in vivo, read-out: Vdss. Set-up: dose 1 mg/kg, route intravenous.
Data set [16] is described as follows: Volume of distribution at steady state in rat at 1 mg/kg, iv. It counts as ADME, organism-based. On the set-up: dose 1 mg/kg, route intravenous. To be noted: in vivo, read-out: Vdss.
A short description of data set [17]: Clearance in dog at 1 mg/kg, iv. Set-up: dose 1 mg/kg, route intravenous. To be noted: in vivo. It counts as ADME, organism-based, Canis lupus familiaris.
Data set [18] can be described thus: Clearance in rat at 1 mg/kg, iv. On the set-up: dose 1 mg/kg, route intravenous. It counts as ADME, organism-based. To be noted: in vivo.
Data set [19] is described as follows: Half life in rat at 1 mg/kg, iv. It counts as ADME, organism-based. Set-up: dose 1 mg/kg, route intravenous. To be noted: in vivo.
Data set [20] is described as follows: Half life in dog at 1 mg/kg, iv. It counts as ADME, organism-based, Canis lupus familiaris. Set-up: dose 1 mg/kg, route intravenous. To be noted: in vivo.
Data set [21] is described as follows: AUC (0 to infinity) in dog at 1 mg/kg, iv. It counts as ADME, organism-based, Canis lupus familiaris. On the set-up: dose 1 mg/kg, route intravenous, time infinity. The note with it: plasma.
Data set [22] in a line: AUC (0 to infinity) in rat at 1 mg/kg, iv. It counts as ADME, organism-based. On the set-up: time infinity, dose 1 mg/kg, route intravenous. The note with it: plasma.
Data set [23] in a line: AUC (0 to infinity) in dog at 1 mg/kg, po. It counts as ADME, organism-based, Canis lupus familiaris. On the set-up: time infinity, dose 1 mg/kg, route oral. To be noted: plasma.
Data set [24] is described as follows: AUC (0 to infinity) in rat at 1 mg/kg, po. It counts as ADME, organism-based. Set-up: time infinity, dose 1 mg/kg, route oral. The note with it: plasma.
The nature of data set [25]: Tmax in dog at 1 mg/kg, po. It counts as ADME, organism-based, Canis lupus familiaris. On the set-up: dose 1 mg/kg, route oral. To be noted: in vivo.
Data set [26] in a line: Tmax in rat at 1 mg/kg, po. The note with it: in vivo. On the set-up: dose 1 mg/kg, route oral. It counts as ADME, organism-based.
The nature of data set [27]: Cmax in dog at 1 mg/kg, po. It counts as ADME, organism-based, Canis lupus familiaris. The note with it: in vivo. Set-up: dose 1 mg/kg, route oral.
A short description of data set [28]: Cmax in rat at 1 mg/kg, po. It counts as ADME, organism-based. On the set-up: dose 1 mg/kg, route oral. The note with it: in vivo.
A short description of data set [29]: Metabolic stability in human liver microsomes after 30 mins by LC-ESI/MS analysis. It counts as ADME, Microsome. To be noted: read-out: Stability.
The nature of data set [30]: Metabolic stability in dog liver microsomes after 30 mins by LC-ESI/MS analysis. To be noted: read-out: Stability. It counts as ADME, Canis lupus familiaris, Microsome.
Data set [31] is described as follows: Metabolic stability in rat liver microsomes after 30 mins by LC-ESI/MS analysis. It counts as ADME, Microsome. The note with it: read-out: Stability.
In data set [32] the target is T2, Sodium-dependent serotonin transporter (Homo sapiens, UniProt P31645). The experiment in a line: biochemical. It counts as cell-based, HEK293.
Target sequence in this assay (P31645 whole entry): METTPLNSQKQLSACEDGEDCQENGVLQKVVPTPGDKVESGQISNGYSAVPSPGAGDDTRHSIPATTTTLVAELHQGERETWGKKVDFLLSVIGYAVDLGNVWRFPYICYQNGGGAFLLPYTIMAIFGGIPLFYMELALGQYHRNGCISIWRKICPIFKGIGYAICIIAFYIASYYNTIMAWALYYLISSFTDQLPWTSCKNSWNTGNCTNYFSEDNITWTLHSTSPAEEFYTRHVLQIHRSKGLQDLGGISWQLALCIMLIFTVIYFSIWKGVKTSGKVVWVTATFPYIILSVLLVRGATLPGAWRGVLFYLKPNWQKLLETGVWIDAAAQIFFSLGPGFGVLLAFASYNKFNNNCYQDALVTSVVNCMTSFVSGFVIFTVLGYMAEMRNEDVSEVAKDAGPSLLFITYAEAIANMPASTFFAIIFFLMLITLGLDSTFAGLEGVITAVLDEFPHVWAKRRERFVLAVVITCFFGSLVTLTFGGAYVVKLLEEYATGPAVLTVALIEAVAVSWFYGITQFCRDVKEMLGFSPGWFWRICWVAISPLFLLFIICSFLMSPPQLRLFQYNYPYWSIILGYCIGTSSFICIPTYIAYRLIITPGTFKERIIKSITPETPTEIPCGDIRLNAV
Description: Displacement of [3H]citalopram from human SERT transfected in HEK293 cells after 3 hrs by Wallac counting analysis
In data set [33] the target is Sodium-dependent serotonin transporter (Rattus norvegicus, UniProt P31652).
Description: Displacement of [3H]-citalopram from Sprague-Dawley rat brain SERT after 1 hr
The species entered for data set [34] is Rattus norvegicus. The experiment in a line: animal or person. The note with it: po.
Data set [35] is filed under the species Rattus norvegicus. The data set is described as follows: animal or person. To be noted: Sprague-Dawley, po, 2 h.
Description: (§1) In vivo SERT receptor occupancy in po dosed Sprague-Dawley rat brain cortex after 2 hrs in presence of DASB
Data set [36] deals with Sodium-dependent dopamine transporter (Homo sapiens, UniProt Q01959). The data set is described as follows: biochemical.
Description: Displacement of [3H]WIN35428 from human DAT transfected in HEK293 cells after 3 hrs by Wallac counting analysis
The target in data set [37] is T2, Sodium-dependent serotonin transporter. The experiment in a line: Inhibition of human SERT transfected in HEK293 cells assessed as inhibition of [3H]serotonin uptake incubated 30 mins prior to substrate addition measured after 1 minute 50 secs. It counts as cell-based.
Target sequence in this assay (P31645 whole entry, looked up): as the sequence (P31645 whole entry) above
Data set [38] concerns Rattus norvegicus. The note with it: Sprague-Dawley.
Description: as §1
The test system of data set [39] is Rattus norvegicus.

Molecules are shown by their SMILES. Calls of active or inactive are those of the source. The calls are words filed in the database; no cut-off is given here. Where only a bound is given, the exact number is not on record here.

Chain of Sodium-dependent dopamine transporter (Q01959 whole entry): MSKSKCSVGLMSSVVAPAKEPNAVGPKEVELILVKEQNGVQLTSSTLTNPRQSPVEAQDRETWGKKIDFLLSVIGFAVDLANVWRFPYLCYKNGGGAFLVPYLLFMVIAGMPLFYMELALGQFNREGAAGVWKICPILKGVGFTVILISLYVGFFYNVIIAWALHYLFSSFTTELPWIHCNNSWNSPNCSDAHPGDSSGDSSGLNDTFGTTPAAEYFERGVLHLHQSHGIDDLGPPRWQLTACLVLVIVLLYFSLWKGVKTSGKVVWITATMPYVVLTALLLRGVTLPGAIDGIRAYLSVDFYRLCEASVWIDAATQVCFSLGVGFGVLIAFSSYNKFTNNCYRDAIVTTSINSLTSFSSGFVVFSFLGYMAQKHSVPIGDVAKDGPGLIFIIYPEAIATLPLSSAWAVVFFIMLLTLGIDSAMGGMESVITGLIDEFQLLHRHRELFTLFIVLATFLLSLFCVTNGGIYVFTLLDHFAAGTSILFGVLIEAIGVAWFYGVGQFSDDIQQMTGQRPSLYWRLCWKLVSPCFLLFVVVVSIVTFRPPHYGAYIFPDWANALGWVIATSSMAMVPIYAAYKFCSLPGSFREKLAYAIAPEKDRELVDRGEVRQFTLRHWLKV
Chain of Sodium-dependent serotonin transporter (Rattus norvegicus, UniProt P31652) (P31652 whole entry): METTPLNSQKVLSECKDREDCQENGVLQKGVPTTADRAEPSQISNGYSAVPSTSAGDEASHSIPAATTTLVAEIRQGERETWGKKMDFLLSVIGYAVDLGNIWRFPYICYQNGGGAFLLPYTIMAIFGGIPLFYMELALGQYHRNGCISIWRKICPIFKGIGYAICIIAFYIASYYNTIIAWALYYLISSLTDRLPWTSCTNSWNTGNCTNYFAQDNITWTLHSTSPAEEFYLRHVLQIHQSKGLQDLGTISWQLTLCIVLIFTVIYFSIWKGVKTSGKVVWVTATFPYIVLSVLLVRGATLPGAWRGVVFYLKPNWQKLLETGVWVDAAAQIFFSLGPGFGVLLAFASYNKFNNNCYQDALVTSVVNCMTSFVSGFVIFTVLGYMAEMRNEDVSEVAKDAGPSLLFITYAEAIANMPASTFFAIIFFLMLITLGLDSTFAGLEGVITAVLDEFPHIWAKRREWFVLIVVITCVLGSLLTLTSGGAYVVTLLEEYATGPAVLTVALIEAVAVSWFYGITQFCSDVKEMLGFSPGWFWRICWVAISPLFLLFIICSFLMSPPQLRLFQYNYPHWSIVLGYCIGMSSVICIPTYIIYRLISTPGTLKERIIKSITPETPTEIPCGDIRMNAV
Chain of Cytochrome P450 2C9 (P11712 whole entry): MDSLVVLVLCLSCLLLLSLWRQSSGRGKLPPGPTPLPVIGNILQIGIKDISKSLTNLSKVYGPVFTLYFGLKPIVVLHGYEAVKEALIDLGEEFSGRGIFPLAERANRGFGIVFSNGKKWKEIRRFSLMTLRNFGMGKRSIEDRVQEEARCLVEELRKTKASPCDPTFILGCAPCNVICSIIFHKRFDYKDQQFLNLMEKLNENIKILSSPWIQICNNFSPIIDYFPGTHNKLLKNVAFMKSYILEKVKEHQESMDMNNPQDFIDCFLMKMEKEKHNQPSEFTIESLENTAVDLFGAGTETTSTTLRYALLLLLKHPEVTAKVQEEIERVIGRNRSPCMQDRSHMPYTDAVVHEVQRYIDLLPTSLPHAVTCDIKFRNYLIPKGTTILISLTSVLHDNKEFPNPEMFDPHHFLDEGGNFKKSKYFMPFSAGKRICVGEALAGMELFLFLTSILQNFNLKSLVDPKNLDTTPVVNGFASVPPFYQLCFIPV
Chain of CYP2C9 (P11712 whole entry): as above
Chain of Cytochrome P450 3A4 (P08684 whole entry): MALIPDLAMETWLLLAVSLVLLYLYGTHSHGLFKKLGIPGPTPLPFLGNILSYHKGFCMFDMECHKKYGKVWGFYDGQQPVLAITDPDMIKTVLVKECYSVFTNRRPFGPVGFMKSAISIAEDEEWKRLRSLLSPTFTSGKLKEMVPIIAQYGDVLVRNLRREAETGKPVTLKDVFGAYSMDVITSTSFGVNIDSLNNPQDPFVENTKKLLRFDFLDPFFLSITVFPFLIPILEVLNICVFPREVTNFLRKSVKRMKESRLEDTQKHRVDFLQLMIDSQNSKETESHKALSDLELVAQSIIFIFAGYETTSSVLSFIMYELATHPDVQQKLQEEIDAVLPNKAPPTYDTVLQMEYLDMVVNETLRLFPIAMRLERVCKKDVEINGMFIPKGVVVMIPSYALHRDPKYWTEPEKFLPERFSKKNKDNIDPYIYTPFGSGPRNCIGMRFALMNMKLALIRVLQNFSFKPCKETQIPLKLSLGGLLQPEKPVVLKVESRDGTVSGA
Chain of CYP3A4 (P08684 whole entry): as above
Chain of CYP2D6 (P10635 whole entry): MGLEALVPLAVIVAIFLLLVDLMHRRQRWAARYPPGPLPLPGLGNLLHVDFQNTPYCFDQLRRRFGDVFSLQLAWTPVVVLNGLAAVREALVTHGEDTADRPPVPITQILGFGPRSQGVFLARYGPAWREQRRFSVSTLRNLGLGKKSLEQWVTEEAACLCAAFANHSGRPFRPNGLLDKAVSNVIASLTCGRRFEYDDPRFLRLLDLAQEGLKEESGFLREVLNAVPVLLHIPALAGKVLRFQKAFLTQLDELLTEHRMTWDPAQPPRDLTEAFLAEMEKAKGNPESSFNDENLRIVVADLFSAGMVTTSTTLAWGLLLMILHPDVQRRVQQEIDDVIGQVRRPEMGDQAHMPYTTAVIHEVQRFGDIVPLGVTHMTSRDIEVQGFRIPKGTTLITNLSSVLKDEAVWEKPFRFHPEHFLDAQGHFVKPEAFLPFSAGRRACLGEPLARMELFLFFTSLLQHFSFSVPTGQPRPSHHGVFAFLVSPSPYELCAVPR
Chain of Cytochrome P450 2D6 (P10635 whole entry): as above

In the case of `COc1ccc(O[C@@H](CC(C)C)[C@H]2CCNC2)c(C)n1` [listing 1 of 2 here], the fraction unbound in [1] was 0.43. In addition, in data set [2], the Activity result was “Non-toxic”. Further, the Kp in data set [3] was found to be 3. For the same compound, the figures for the concentration in data set [4] and in [5] were 146 nM and 450 nM, respectively. Also, the IC50 was greater than 10 µM in [6]; greater than 10 µM in data set [7]; greater than 10 µM in [8]; greater than 10 µM in data set [9]; 1.9 nM in [32]. In addition, the inhibition at 10 µM in [10], in data set [11] and in [12] was less than 30% each time. The figures for the bioavailability in data set [13] and in data set [14] were 47% and 31%, respectively. The values for the Vd in data set [15] and in data set [16] were 1.8 L/kg and 7.6 L/kg, respectively. For the same compound, the clearance in data set [17] was 8.2 mL/min/kg; in [18] it was 120 mL/min/kg. For the same compound, the results for the half-life in data set [19] and in [20] were 50.4 min and 276 min, respectively. The AUC(0-inf) in data set [21] came to 8.09 µM·h; in data set [22] it was 0.6 µM·h; in data set [23], 4.13 µM·h; in [24], 0.251 µM·h. Moreover, the Tmax in data set [25] and in data set [26] was 1.3 h each time. The figures for the Cmax in [27] and in data set [28] were 503 nM and 65 nM, respectively. The remaining at 0.5 h in data set [29] was 28%; in [30], 57%; in data set [31], 92%. In [33], this compound yielded a Ki of 0.16 nM. The ED80 in [34] worked out at 6.8 mg/kg; in [35], 10.6 mg/kg.

Take `COc1ccc(O[C@@H](CC(C)C)[C@H]2CCNC2)c(C)n1` (stereo in doubt; form 1): the Ki in data set [32] stood at 0.22 nM; in [36], 475 nM.

Consider `COc1ccc(O[C@@H](CC(C)C)[C@@H]2CCNC2)c(C)n1`, for which the Ki in data set [32] was 0.84 nM; in data set [36], greater than 890 nM.

`COc1ccc(O[C@@H](CC(C)C)[C@H]2CCNC2)c(C)n1` (stereo in doubt; form 2): the Ki in data set [32] stood at 0.21 nM; in data set [36], 354 nM.

As for `COc1ccc(O[C@H](CC(C)C)[C@H]2CCNC2)c(C)n1`, in [36], the Ki is greater than 890 nM.

`COc1ccc(O[C@H](CC(C)C)[C@@H]2CCNC2)c(C)n1`: the values for the Ki in data set [32] and in [36] were 0.75 nM and greater than 890 nM, respectively.

As to `CCN(CC)C(=O)C1(c2ccccc2)CC1CN` (stereo not drawn), the affinity in data set [33], expressed as Ki, was 27 nM. That is a double-digit nanomolar value.

Consider `COc1ccc(O[C@@H](CC(C)C)[C@H]2CCNC2)c(C)n1` [listing 2 of 2 here], for which, in data set [37], the inhibition entry is “Active”. Further, the Activity entry in [38] was “Dose-dependent effect”. In addition, in [39], the inhibition entry is “Dose-dependent effect”.
